By IC50 is commonly meant the concentration at which inhibition is half-maximal.

This note sets out measurements from patent publication US12577217B2, “15-PGDH inhibitor” (KYORIN Pharmaceutical Co., Ltd., priority 2019, dated 2026).

Read-outs that look alike come from different tables or passages of the source.

In this assay the target is T1, recombinant human 15-PGDH (Homo sapiens, UniProt P15428).
T1 construct: purchased R&D Systems
T1 sequence (P15428 1-266): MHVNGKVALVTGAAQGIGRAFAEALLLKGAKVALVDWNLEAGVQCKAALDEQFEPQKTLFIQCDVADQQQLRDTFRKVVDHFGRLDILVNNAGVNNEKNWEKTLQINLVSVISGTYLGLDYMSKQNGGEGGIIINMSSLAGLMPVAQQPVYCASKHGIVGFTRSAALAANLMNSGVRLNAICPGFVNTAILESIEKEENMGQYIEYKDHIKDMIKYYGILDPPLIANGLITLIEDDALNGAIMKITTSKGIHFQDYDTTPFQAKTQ
The assay is described as follows: 15-PGDH enzyme inhibition test. It is filed as biochemical. The settings on record: 4 nM recombinant human 15-PGDH, 30 μM PGE2, 1 mM NAD+, 60 minutes after starting the reaction. In short, it runs like this: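 4 nM recombinant human enzyme pre-incubated with compound 12 min at room temperature in 50 mM Tris-HCl pH 8.0 with 0.01% Tween 20 and 0.01% bovine gamma globulin. Reaction started with 30 μM PGE2 and 1 mM NAD+, read after 60 min by fluorescence (ex 340/em 440 nm). IC50 from concentration-response curve.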

`Cn1nc2cc(N3CCOc4cc(C(=O)N5CCOC6(CC6)C5)cnc43)ccn2c1=O` [Example 8-49]: the IC50 (read-out: IC50 Value) is below 10 nM.

On to `COCn1nc2cc(N3CCOc4cc(C(=O)N5CCC(F)(F)CC5)cnc43)ccn2c1=O` [Example 1-43], for which the IC50 (read-out: IC50 Value) was below 10 nM.

Regarding `O=C(c1cnc2c(c1)OCCN2c1cccc(F)c1)N1CCCCC1` [Example 1-237], for the setting “read-out: IC50 Value”, the IC50 was below 10 nM.

Regarding `O=C(c1ccc2c(c1)OCCN2c1ccccc1)N1CCCCC1` [Example 1-18], the IC50 (read-out: IC50 Value) was below 10 nM.

Regarding `O=C(c1cnc2c(c1)OCCN2c1cccnc1)N1CCCCC1` [Example 1-234], where the note is “read-out: IC50 Value”, the IC50 was 10 to 100 nM.

With `COCn1nc2cc(N3CCOc4cc(C(=O)N5CCC(F)(F)CC5)ccc43)ccn2c1=O` [Example 1-154], the IC50 (read-out: IC50 Value) is below 10 nM.

For `CO[C@H]1CCCN(C(=O)c2cnc3c(c2)OCCN3c2ccn3c(=O)n(C)nc3c2)C1` [Example 18-2], the IC50 (read-out: IC50 Value) was below 10 nM.

`Cn1nc2cc(N3CCCc4cc(C(=O)N5CCC[C@@H](CF)C5)cnc43)ccn2c1=O` [Example 1-119]: under “read-out: IC50 Value”, the IC50 is below 10 nM.

As for `CCOCn1nc2cc(N3CCCc4cc(C(=O)N5CCCCC5)cnc43)ccn2c1=O` [Example 1-57], the IC50 (read-out: IC50 Value) was below 10 nM.

In the case of `O=C(O)c1ccc(N2CCc3cc(C(=O)N4CCCCC4)ccc32)cc1` [Example 2-30], the IC50 (read-out: IC50 Value) is below 10 nM.

Take `CCN1Cc2cc(N3CCCc4cc(C(=O)N5CCN(C)CC5)cnc43)ccc2C1=O` [Example 8-73]: for the setting “read-out: IC50 Value”, the IC50 was below 10 nM.

Turning to `CCN1Cc2cc(N3CCCc4cc(C(=O)N5CCCC(C)(F)C5)cnc43)ccc2C1=O` (centres unmarked) [Example 8-81], the IC50 (read-out: IC50 Value) was below 10 nM.

As for `Cn1cnc2cc(N3CCCc4cc(C(=O)N5CCC(F)(F)CC5)cnc43)cnc2c1=O` [Example 1-191], the IC50 (read-out: IC50 Value) is below 10 nM.

With `CCn1nc2cc(N3CCCc4cc(C(=O)N5CCCC(F)(F)C5)cnc43)ccn2c1=O` [Example 8-164], where the note is “read-out: IC50 Value”, the IC50 was below 10 nM.

Turning to `Cn1nc2cc(N3CCOc4cc(C(=O)N5CCC(=O)CC5)cnc43)ccn2c1=O` [Example 8-112], the IC50 (IC50 Value) lay within 10 to 100 nM.

For `COc1cc(N2CCOc3cc(C(=O)N4CCCCC4)cnc32)cc2nn(C)c(=O)n12` [Example 1-230], the IC50 (read-out: IC50 Value) fell in the range of 10 to 100 nM.

For the compound `CN(C)C(=O)Cn1nc2cc(N3CCOc4cc(C(=O)N5CCCCC5)cnc43)ccn2c1=O` [Example 6-8], the IC50 (read-out: IC50 Value) was below 10 nM.

Consider `COc1ccc(CN2Cc3cc(N4CCOc5cc(C(=O)N6CCC(F)(F)CC6)ccc54)ccc3C2=O)c(OC)c1` [Example 1-150], for which the IC50 (read-out: IC50 Value) was below 10 nM.

As for `C[C@@H]1CCCCN1C(=O)c1cnc2c(c1)OCCN2c1ccc2c(c1)CN(C)C2=O` [Example 8-195], the IC50 (read-out: IC50 Value) was below 10 nM.

Regarding `CCN1Cc2cc(N3CCCc4cc(C(=O)N5CCC(F)(F)CC5)cnc43)ccc2C1=O` [Example 1-126], the IC50 (read-out: IC50 Value) was below 10 nM.

As to `CS(=O)(=O)c1ccc(N2CCOc3cc(C(=O)N4CCCCC4)cnc32)cc1` [Example 1-240], under “read-out: IC50 Value”, the IC50 is 10 to 100 nM.

Take `O=C(c1cnc2c(c1)OCCN2c1ccc2ccncc2c1)N1CCCCC1` [Example 1-260]: the IC50 (read-out: IC50 Value) was below 10 nM.

On to `O=C1NCc2cc(N3CCCc4cc(C(=O)N5CCC(F)(F)CC5)cnc43)ccc21` [Example 14-5], for which the IC50 (read-out: IC50 Value) was below 10 nM.

Turning to `CCOCCn1nc2cc(N3CCCc4cc(C(=O)N5CCCCC5)cnc43)ccn2c1=O` [Example 1-70], for the setting “read-out: IC50 Value”, the IC50 is below 10 nM.

Turning to `O=C(O)c1ccc(N2CCOc3cc(C(=O)N4CCCC(F)(F)C4)cnc32)cc1` [Example 4-6], the IC50 (read-out: IC50 Value) was below 10 nM.

Turning to `CCn1nc2cc(N3CCCc4cc(C(=O)N5CCC[C@H](C)C5)cnc43)ccn2c1=O` [Example 8-160], for the setting “read-out: IC50 Value”, the IC50 was below 10 nM.

`Cn1nc2cc(N3CCOc4cc(C(=O)N5CCC6CC6C5)cnc43)ccn2c1=O` (centres unmarked) [Example 8-46]: the IC50 (read-out: IC50 Value) was below 10 nM.

Regarding `COCn1nc2cc(N3CCCc4cc(C(=O)N5CCC(F)(F)CC5)cnc43)ccn2c1=O` [Example 1-76], where the note is “read-out: IC50 Value”, the IC50 was below 10 nM.

`CCN1Cc2cc(N3CCCc4cc(C(=O)N5CCCCCC5)cnc43)ccc2C1=O` [Example 8-70]: under “read-out: IC50 Value”, the IC50 was below 10 nM.

As to `CCN1CCN(c2ccn3c(=O)n(C)nc3c2)c2ncc(C(=O)N3CCC(F)(F)CC3)cc21` [Example 29-5], the 50% inhibitory concentration (IC50) (read-out: IC50 Value) was below 10 nM.

As for `O=C(c1cnc2c(c1)OCCN2c1ccn2c(=O)n(CC(F)(F)F)nc2c1)N1CCC(F)(F)CC1` [Example 27-8], the half-inhibitory concentration (IC50) (read-out: IC50 Value) was below 10 nM.

Take `O=C(c1cnc2c(c1)OCCN2c1ccccc1)N1CCCCC1` [Example 1-232]: the IC50 (read-out: IC50 Value) was 10 to 100 nM.

Turning to `O=C(c1cnc2c(c1)CCCN2c1cc2c(cn1)C(=O)N(C1COC1)C2)N1CCC(F)(F)CC1` [Example 1-183], for the setting “read-out: IC50 Value”, the 50% inhibitory concentration (IC50) lay within 10 to 100 nM.

In the case of `O=C(c1cnc2c(c1)OCCN2c1ccc(-c2nnn[nH]2)cc1)N1CCCCC1` [Example 14-10], the IC50 (read-out: IC50 Value) was below 10 nM.

For the compound `Cc1cc(C(=O)O)ccc1N1CCOc2cc(C(=O)N3CCCCC3)cnc21` [Example 4-18], the IC50 (read-out: IC50 Value) was 10 to 100 nM.

On to `O=C(c1cnc2c(c1)CCCN2c1ccc2c(c1)CN(C1CC1)C2=O)N1CCC(F)(F)CC1` [Example 1-213], for which, under “read-out: IC50 Value”, the IC50 is below 10 nM.

Consider `O=C(O)c1ccc(N2CCOc3cc(C(=O)N4CCC(F)(F)CC4)cnc32)cc1` [Example 4-5], for which the IC50 (read-out: IC50 Value) is below 10 nM.

With `COCCn1nc2cc(N3CCOc4cc(C(=O)N5CCCCC5)cnc43)ccn2c1=O` [Example 1-28], the IC50 (read-out: IC50 Value) is below 10 nM.

Take `C[C@H]1CCN(C(=O)c2cnc3c(c2)OCCN3c2ccn3c(=O)n(C)nc3c2)C1` [Example 8-35]: under “read-out: IC50 Value”, the IC50 was below 10 nM.

Regarding `O=C(c1cnc2c(c1)OCCN2c1ccn2c(=O)n(Cc3ccc(F)cc3)nc2c1)N1CCC(F)(F)CC1` [Example 27-4], under “read-out: IC50 Value”, the IC50 is below 10 nM.

With `CC(=O)N1CCN(C(=O)c2cnc3c(c2)OCCN3c2ccc3c(c2)CN(C)C3=O)CC1` [Example 8-190], the IC50 (read-out: IC50 Value) is above 100 nM.

In the case of `COC(=O)c1cc2ccc(N3CCOc4cc(C(=O)N5CCCCC5)cnc43)cc2n1C` [Example 1-92], the IC50 (read-out: IC50 Value) is below 10 nM.

For the compound `O=C1NCc2cc(N3CCCc4cc(C(=O)N5CCCCC5)cnc43)ccc21` [Example 14-4], the 50% inhibitory concentration (IC50) (read-out: IC50 Value) was below 10 nM.

`CCn1nc2cc(N3CCCc4cc(C(=O)N5CCC[C@@H](C(F)(F)F)C5)cnc43)ccn2c1=O` [Example 8-170]: the IC50 (read-out: IC50 Value) is 10 to 100 nM.

On to `O=C(c1cnc2c(c1)CCCN2c1ccc2c(c1)CN(C1CC1)C2=O)N1CCCCC1` [Example 1-198], for which, for the setting “read-out: IC50 Value”, the IC50 was below 10 nM.

Turning to `Cn1nc2cc(N3CCOc4cc(C(=O)N5CC6CCC6C5)cnc43)ccn2c1=O` (centres unmarked) [Example 8-97], the IC50 (read-out: IC50 Value) is below 10 nM.

For the compound `CCn1nc2cc(N3CCCc4cc(C(=O)N5CCC[C@H](C(F)(F)F)C5)cnc43)ccn2c1=O` [Example 8-171], for the setting “read-out: IC50 Value”, the IC50 was below 10 nM.

For `CC(C)(C)OC(=O)c1ccc(N2CCOc3cc(C(=O)N4CCC[C@@H](F)C4)cnc32)cc1` [Example 8-7], the IC50 (read-out: IC50 Value) lay within 10 to 100 nM.

For `CN1Cc2cc(N3CCCc4cc(C(=O)N5CCCCC5)cnc43)cnc2C1=O` [Example 1-67], the IC50 (read-out: IC50 Value) was below 10 nM.

On to `Cn1nc2cc(N3CCc4cc(C(=O)N5CCCCC5)ccc43)ccn2c1=O` [Example 1-141], for which the IC50 (read-out: IC50 Value) was below 10 nM.

For `COCN1Cc2cc(N3CCCc4cc(C(=O)N5CCCCC5)cnc43)ccc2C1=O` [Example 1-172], for the setting “read-out: IC50 Value”, the IC50 is below 10 nM.

For the compound `CCn1oc2cc(N3CCOc4cc(C(=O)N5CCC(F)(F)CC5)cnc43)ccc2c1=O` [Example 8-214], under “read-out: IC50 Value”, the IC50 was below 10 nM.

On to `COCCCNC(=O)c1cnc2c(c1)OCCN2c1ccn2c(=O)n(C)nc2c1` [Example 8-107], for which, where the note is “read-out: IC50 Value”, the IC50 is below 10 nM.
